The structures appear in SMILES notation.

The subject of one experiment is HL-60. The experiment can be described thus: Antiproliferative activity against human HL-60 cells by MTT colorimetric assay. The experiment is classed as functional, cell-based. On the technique in general: Tetrazolium dyes change colour on reduction, which living cells bring about.
The next experiment concerns MCF7. As to the kind of experiment: Antiproliferative activity against human MCF7 cells by MTT colorimetric assay. The format is functional, cell-based.
Experiment [1] deals with A549. As to the kind of experiment: Antiproliferative activity against human A549 cells by MTT colorimetric assay. The experiment is classed as functional, cell-based.
Another experiment deals with HeLa. The experiment can be described thus: Antiproliferative activity against human HeLa cells by MTT colorimetric assay. The format is functional, cell-based.
The subject of another experiment is MDA-MB-231. As to the kind of experiment: Antiproliferative activity against human MDA-MB-231 cells by MTT colorimetric assay. The format is functional, cell-based.
Experiment [2] relates to Raji. The experiment can be described thus: Antiproliferative activity against human Raji cells by MTT colorimetric assay. The format is functional, cell-based.
The subject of experiment [3] is K562. The experiment can be described thus: Antiproliferative activity against human K562 cells by MTT colorimetric assay. The format is functional, cell-based.
The subject of another experiment is Jurkat. As to the kind of experiment: Antiproliferative activity against human Jurkat cells by MTT colorimetric assay. The format is functional, cell-based.
For the next experiment, the system named is MRC5. As to the kind of experiment: Antiproliferative activity against human MRC5 cells by MTT colorimetric assay. The format is functional, cell-based.
Experiment [4] concerns K562. The experiment can be described thus: Induction of apoptosis in human K562 cells assessed as morphological changes measured after 72 hrs relative to control. The experiment is classed as functional.
Experiment [5] has as its system A549. The experiment can be described thus: Potency index, ratio of Doxorubicin IC50 to test compound IC50 for antiproliferative activity against human A549 cells by MTT colorimetric assay. The format is functional.
Experiment [6] relates to K562. As to the kind of experiment: Induction of cell cycle arrest in human K562 cells assessed as decrease in accumulation of cells at S phase measured after 72 hrs by PI staining based flow cytometry analysis relative to control. Also on record: scale not given: the % may be the effect or the level left. The format is functional. Background: Flow cytometry measures light scatter and fluorescence of single cells or particles in a stream.

For experiment [7], the system named is K562. The experiment can be described thus: Induction of cell cycle arrest in human K562 cells assessed as decrease in accumulation of cells at subG1 phase measured after 72 hrs by PI staining based flow cytometry analysis relative to control. Also on record: scale not given: the % may be the effect or the level left. The experiment is classed as functional.

Experiment [8] has as its system K562. As to the kind of experiment: Induction of cell cycle arrest in human K562 cells assessed as increase in accumulation of cells at G2/M phase measured after 72 hrs by PI staining based flow cytometry analysis relative to control. The experiment is classed as functional.
For a further experiment, the system named is Cell membrane. As to the kind of experiment: Induction of cell membrane damage in human K562 cells measured after 72 hrs by acridine orange and ethidium bromide staining based analysis relative to control. The format is cell membranes.
The subject of experiment [9] is Raji. The experiment can be described thus: Potency index, ratio of Doxorubicin IC50 to test compound IC50 for antiproliferative activity against human Raji cells by MTT colorimetric assay. The format is functional.

`O=C(/C=C/c1ccc(F)cc1)O[C@H](c1cccs1)[C@H]1O[C@@H]2CC(=O)O[C@@H]2[C@H]1O`: the IC50 is 18.9 µM in the experiment with HL-60; 10.5 µM with MCF7; 13.3 µM with A549 [1]; 4.63 µM in the experiment with HeLa; 2.11 µM in the experiment with MDA-MB-231; 23.9 µM with Raji [2]. Moreover, the results for the IC50 with K562 [3], with Jurkat and in the experiment on MRC5 were 6.56 µM, 19.7 µM and over 100 µM, respectively.

For the molecule `O=C1C[C@H]2O[C@H]([C@H](O)c3cccs3)[C@H](O)[C@H]2O1`, the concentration for half-maximal inhibition (IC50) came out at 2.07 µM in the experiment with HL-60; 3.38 µM in the experiment with MCF7; 1.2 µM with A549 [1]; 0.11 µM in the experiment with HeLa; 2.88 µM with MDA-MB-231; 5.97 µM in the experiment on Raji [2]. Moreover, the figures for the half-maximal inhibitory concentration (IC50) with K562 [3], in the experiment with Jurkat and in the experiment on MRC5 were 0.03 µM, 1.01 µM and over 100 µM, respectively. In addition, the Activity in the experiment with K562 [4] is 196.5%; in the experiment with K562 [6], 24.2%; with K562 [7] it was over 85%; in the experiment on K562 [8], 31.2%; with Cell membrane, 40.6%. Moreover, in the experiment on A549 [5], the “Ratio IC50” value was 4.

For `O=C1C[C@H]2O[C@H](C(=O)c3cccs3)[C@H](O)[C@H]2O1`, the 50% inhibitory concentration (IC50) in the experiment on HL-60 is 39.6 µM; in the experiment on MCF7, 23.4 µM; with A549 [1] it was 14.9 µM; in the experiment with HeLa it was 12.4 µM; in the experiment on MDA-MB-231, 8.93 µM; in the experiment with Raji [2], 11.4 µM. Also, the half-maximal inhibitory concentration (IC50) in the experiment with K562 [3] is 18.4 µM; in the experiment with Jurkat it was 25.3 µM; with MRC5, over 100 µM.

Regarding `O=C1C[C@H]2O[C@H]([C@@H](O)c3cccs3)[C@H](O)[C@H]2O1`, the half-inhibitory concentration (IC50) in the experiment with HL-60 was 13 µM; with MCF7, 44.9 µM; with A549 [1], 18.8 µM; in the experiment with HeLa, 6.21 µM; with MDA-MB-231, 98.8 µM; with Raji [2] it was 15 µM. The IC50 in the experiment with K562 [3] came to 5.78 µM; in the experiment with Jurkat it was 2.65 µM; in the experiment with MRC5, 95.6 µM.

For the molecule `CC1(C)O[C@H]2O[C@H]([C@H](O)c3cccs3)[C@H](O)[C@H]2O1`, the IC50 turned out to be 1.05 µM in the experiment on HL-60; 4.34 µM in the experiment with MCF7; 7.32 µM with A549 [1]; 2.85 µM with HeLa; 8.12 µM in the experiment with MDA-MB-231; 3.45 µM with Raji [2]. Besides, the half-maximal inhibitory concentration (IC50) was 0.89 µM in the experiment on K562 [3], 1.06 µM in the experiment on Jurkat and over 100 µM in the experiment on MRC5.

Consider `O=C1C[C@H]2O[C@H]([C@@H](O)c3ccccc3)[C@H](O)[C@H]2O1`, for which the Activity with K562 [4] is 254.2%; in the experiment with K562 [7], over 55%; with Cell membrane, 57.3%.

Regarding `CC1(C)O[C@H]2O[C@H]([C@@H](O)c3cccs3)[C@H](O)[C@H]2O1`, the half-maximal inhibitory concentration (IC50) in the experiment on HL-60 stood at 8.46 µM; with MCF7, 2.63 µM; in the experiment with A549 [1], 6.58 µM; in the experiment with HeLa it was 1.59 µM; in the experiment on MDA-MB-231, 11.6 µM; in the experiment with Raji [2], 1.36 µM. The half-inhibitory concentration (IC50) in the experiment with K562 [3] is 1.02 µM; with Jurkat, 4.41 µM; in the experiment with MRC5, over 100 µM. Moreover, in the experiment on Raji [9], the “Ratio IC50” value was 2.

As for `O=C1C[C@H]2O[C@H]([C@H](O)c3ccccc3)[C@H](O)[C@H]2O1`, the IC50 in the experiment on HL-60 and in the experiment on MRC5 was over 100 µM each time. Also, the values for the Activity with K562 [4] and in the experiment on Cell membrane were 145.1% and 31.5%, respectively.

On to `O=C1C[C@H]2O[C@@H](C(=O)c3cccs3)[C@H](O)[C@H]2O1`, for which the IC50 in the experiment with HL-60 is 1.09 µM; with MCF7, 1.02 µM; in the experiment with A549 [1], 18.4 µM; in the experiment with HeLa, 3.89 µM; in the experiment on MDA-MB-231, 5.21 µM; in the experiment with Raji [2], 5.36 µM. Also, the IC50 is 2.67 µM in the experiment on K562 [3], 1.69 µM in the experiment with Jurkat and over 100 µM in the experiment on MRC5.

As for `O=C(/C=C/c1ccc(F)cc1)O[C@@H]1[C@H]2OC(=O)C[C@H]2O[C@@H]1[C@H](OC(=O)/C=C/c1ccc(F)cc1)c1cccs1`, the IC50 with HL-60 turned out to be 14.7 µM; with MCF7, 5.91 µM; in the experiment with A549 [1], 9.28 µM; in the experiment with HeLa, 4.32 µM; in the experiment on MDA-MB-231, 9.55 µM; in the experiment on Raji [2] it was 22.1 µM. For the same molecule, the figures for the half-maximal inhibitory concentration (IC50) in the experiment with K562 [3], with Jurkat and in the experiment on MRC5 were 0.99 µM, 10.7 µM and over 100 µM, respectively.

In the case of `O=C(/C=C/c1ccccc1)O[C@@H]1[C@H]2OC(=O)C[C@H]2O[C@@H]1[C@H](OC(=O)/C=C/c1ccccc1)c1cccs1`, the IC50 in the experiment on HL-60 is 18.2 µM; in the experiment with MCF7, 10.8 µM; in the experiment on A549 [1], 35.6 µM; in the experiment on HeLa it was 23.8 µM; with MDA-MB-231 it was 12.3 µM; with Raji [2], 11.1 µM. In addition, the half-inhibitory concentration (IC50) was 8.36 µM with K562 [3], 10.3 µM with Jurkat and over 100 µM in the experiment on MRC5.

On to `O=C(c1cccs1)[C@H]1OC(O)[C@H](O)[C@H]1O` (some centres undefined), for which the IC50 with HL-60 came out at 8.08 µM; in the experiment on MCF7 it was 15.6 µM; with A549 [1], 5.61 µM; in the experiment on HeLa, 5.58 µM; with MDA-MB-231, 16.3 µM; in the experiment on Raji [2], 20.5 µM. For the same molecule, the figures for the 50% inhibitory concentration (IC50) with K562 [3], with Jurkat and in the experiment on MRC5 were 6.34 µM, 34 µM and over 100 µM, respectively.

The term IC50 denotes the concentration needed to halve the response being measured.

The values above are taken from ChEMBL document CHEMBL5500340, “Synthesis and biological activity of thiophene bioisosteres of natural styryl lactone goniofufurone and related compounds” (Eur J Med Chem, 2024).
